Test results as given in ChEMBL document CHEMBL1201862, “PubChem BioAssay data set” (2004).
Calls of active or inactive are those of the source.

What was measured:
[1] = HeLa cell cytotoxicity, dose response, cytotoxicity control for MgcRacGAP inhibitor project (AID 624300); assay type: functional
[2] = target: T1, Rac GTPase-activating protein 1 (Homo sapiens, UniProt Q9H0H5); assay: MgcRacGAP GTPase-activating activity inhibitors, confirmation, biochemical, ADP Hunter fluorescence, primary and confirmatory (AID 624330); assay type: functional
T1 sequence (Q9H0H5 whole entry): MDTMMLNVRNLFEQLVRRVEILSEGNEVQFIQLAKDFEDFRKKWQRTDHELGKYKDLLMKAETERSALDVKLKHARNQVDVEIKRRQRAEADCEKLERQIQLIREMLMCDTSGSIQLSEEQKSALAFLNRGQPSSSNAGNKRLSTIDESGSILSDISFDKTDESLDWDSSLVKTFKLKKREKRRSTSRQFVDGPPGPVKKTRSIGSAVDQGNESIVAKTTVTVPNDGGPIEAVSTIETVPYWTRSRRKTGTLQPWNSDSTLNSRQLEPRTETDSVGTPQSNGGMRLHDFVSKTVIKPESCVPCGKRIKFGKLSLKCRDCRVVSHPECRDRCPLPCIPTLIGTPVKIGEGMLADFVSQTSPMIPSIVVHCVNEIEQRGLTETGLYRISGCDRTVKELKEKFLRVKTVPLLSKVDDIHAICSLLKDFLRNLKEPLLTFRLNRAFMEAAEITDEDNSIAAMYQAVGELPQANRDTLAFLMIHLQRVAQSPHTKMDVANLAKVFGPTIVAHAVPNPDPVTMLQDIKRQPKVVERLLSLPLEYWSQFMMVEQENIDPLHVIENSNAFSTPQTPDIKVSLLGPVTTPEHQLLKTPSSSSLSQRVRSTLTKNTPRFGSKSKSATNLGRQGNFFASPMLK

[3] = target: 5-hydroxytryptamine receptor 2A (Mus musculus, UniProt P35363); assay type: functional, cell-based;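 further: CHO-K1 cells with tagged receptor and beta-arrestin; agonist potency measured as compound-induced activation of the receptor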
Sequence of 5-hydroxytryptamine receptor 2A (P35363 whole entry): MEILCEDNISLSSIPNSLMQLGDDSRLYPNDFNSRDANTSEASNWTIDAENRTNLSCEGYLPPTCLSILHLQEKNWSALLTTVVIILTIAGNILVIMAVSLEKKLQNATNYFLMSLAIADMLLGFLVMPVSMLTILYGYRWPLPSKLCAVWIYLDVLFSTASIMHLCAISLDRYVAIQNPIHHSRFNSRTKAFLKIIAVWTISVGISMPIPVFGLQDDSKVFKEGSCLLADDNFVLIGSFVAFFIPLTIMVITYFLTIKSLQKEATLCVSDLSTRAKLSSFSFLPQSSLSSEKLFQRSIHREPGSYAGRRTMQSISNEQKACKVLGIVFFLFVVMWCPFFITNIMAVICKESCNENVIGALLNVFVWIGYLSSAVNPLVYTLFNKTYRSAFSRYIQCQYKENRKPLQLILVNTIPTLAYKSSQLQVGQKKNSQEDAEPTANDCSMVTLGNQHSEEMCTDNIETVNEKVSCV

Mu-type opioid receptor = Mu-type opioid receptor (Homo sapiens, UniProt P35372); assay type: functional, cell-based;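 further: U2OS cells with beta-arrestin recruitment to OPRM1 by beta-gal complementation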
Sequence of Mu-type opioid receptor (P35372 whole entry): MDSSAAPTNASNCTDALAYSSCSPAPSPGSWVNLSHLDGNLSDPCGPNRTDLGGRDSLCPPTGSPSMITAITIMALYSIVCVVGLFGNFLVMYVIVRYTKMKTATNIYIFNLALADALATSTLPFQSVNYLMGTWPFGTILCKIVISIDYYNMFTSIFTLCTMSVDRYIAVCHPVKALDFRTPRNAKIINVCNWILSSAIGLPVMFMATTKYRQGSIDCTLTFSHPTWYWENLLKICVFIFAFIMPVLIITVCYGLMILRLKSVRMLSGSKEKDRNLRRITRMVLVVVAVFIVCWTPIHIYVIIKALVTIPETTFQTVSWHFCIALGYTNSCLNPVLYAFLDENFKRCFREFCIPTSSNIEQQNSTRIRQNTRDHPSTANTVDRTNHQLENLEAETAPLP

Albumin = Albumin (Bos taurus, UniProt P02769); assay: Counterscreen for inhibitors of T-cell receptor (TCR)-CD3 interaction: Fluorescence-based biochemical high throughput dose response assay to identify inhibitors of T-cell receptor (TCR)-CD3 interaction using a TAMRA-labeled BSA probe.; assay type: functional
Sequence of Albumin (P02769 whole entry): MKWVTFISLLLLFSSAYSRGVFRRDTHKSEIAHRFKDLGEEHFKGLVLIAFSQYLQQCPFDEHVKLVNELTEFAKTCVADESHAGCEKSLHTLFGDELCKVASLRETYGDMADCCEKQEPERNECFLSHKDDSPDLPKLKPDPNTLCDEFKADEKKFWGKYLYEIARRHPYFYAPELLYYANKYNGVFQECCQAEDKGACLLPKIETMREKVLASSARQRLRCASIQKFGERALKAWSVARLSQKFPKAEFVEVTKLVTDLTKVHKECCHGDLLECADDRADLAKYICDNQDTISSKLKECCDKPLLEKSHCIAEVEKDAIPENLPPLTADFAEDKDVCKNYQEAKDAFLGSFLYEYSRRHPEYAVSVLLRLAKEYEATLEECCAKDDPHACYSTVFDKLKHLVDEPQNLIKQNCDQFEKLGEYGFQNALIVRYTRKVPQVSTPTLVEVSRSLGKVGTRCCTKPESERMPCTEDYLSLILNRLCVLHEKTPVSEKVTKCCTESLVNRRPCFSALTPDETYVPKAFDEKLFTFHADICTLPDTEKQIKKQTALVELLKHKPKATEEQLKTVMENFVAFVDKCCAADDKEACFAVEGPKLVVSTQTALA

[4] = ADAM10 protease inhibitors, dose response, selectivity assay for ADAM17 exosite inhibitor project, biochemical, FRET peptide substrate, recombinant human ADAM10 (AID 743259);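 further: ADAM10 enzyme cleaving a FRET peptide substrate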
[5] = CRF-BP/CRF-R2 complex antagonists, dose response, cell-based, uHTS hits, 384-well (AID 651639); assay type: functional, Homo sapiens; details: read-out: IC50_Mean
[6] = target: T2, Corticotropin-releasing factor receptor 2/Corticotropin-releasing factor-binding protein (Homo sapiens, UniProt P24387+Q13324); assay: Dose Response confirmation of uHTS hits for small molecule antagonists of the CRF-binding protein and CRF-R2 receptor complex.; assay type: functional; details: read-out: IC50_Mean
T2 sequence (Q13324 whole entry): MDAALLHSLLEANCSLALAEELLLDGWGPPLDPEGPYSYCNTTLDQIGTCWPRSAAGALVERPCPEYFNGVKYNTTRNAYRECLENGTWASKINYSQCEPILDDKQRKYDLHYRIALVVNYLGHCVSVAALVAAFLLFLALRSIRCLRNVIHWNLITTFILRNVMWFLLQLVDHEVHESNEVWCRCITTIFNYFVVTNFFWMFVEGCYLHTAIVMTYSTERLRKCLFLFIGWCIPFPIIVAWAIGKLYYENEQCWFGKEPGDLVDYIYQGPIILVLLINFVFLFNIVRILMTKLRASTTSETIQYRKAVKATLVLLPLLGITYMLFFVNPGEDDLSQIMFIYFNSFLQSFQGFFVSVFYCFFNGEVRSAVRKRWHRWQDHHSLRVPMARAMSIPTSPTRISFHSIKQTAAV
T2 sequence (P24387 whole entry): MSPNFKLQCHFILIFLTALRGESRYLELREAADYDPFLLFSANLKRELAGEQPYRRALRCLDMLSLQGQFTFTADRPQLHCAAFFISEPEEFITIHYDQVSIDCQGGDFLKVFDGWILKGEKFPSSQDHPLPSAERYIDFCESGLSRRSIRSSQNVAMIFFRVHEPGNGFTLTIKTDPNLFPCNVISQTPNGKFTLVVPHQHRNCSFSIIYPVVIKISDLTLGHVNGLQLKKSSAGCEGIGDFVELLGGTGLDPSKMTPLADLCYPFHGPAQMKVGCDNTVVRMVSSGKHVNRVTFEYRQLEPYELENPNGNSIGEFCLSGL

[7] = target: T2, Corticotropin-releasing factor receptor 2/Corticotropin-releasing factor-binding protein; assay: activators of CRF receptor 2 with binding protein – uHTS hits, confirmation (AID 602473); assay type: functional; details: read-out: EC50_Mean
[8] = target: Disintegrin and metalloproteinase domain-containing protein 17 (Homo sapiens, UniProt P78536); assay: exosite inhibitors of ADAM17, dose response, biochemical (AID 743260)
Sequence of Disintegrin and metalloproteinase domain-containing protein 17 (P78536 whole entry, the tested form may be a part): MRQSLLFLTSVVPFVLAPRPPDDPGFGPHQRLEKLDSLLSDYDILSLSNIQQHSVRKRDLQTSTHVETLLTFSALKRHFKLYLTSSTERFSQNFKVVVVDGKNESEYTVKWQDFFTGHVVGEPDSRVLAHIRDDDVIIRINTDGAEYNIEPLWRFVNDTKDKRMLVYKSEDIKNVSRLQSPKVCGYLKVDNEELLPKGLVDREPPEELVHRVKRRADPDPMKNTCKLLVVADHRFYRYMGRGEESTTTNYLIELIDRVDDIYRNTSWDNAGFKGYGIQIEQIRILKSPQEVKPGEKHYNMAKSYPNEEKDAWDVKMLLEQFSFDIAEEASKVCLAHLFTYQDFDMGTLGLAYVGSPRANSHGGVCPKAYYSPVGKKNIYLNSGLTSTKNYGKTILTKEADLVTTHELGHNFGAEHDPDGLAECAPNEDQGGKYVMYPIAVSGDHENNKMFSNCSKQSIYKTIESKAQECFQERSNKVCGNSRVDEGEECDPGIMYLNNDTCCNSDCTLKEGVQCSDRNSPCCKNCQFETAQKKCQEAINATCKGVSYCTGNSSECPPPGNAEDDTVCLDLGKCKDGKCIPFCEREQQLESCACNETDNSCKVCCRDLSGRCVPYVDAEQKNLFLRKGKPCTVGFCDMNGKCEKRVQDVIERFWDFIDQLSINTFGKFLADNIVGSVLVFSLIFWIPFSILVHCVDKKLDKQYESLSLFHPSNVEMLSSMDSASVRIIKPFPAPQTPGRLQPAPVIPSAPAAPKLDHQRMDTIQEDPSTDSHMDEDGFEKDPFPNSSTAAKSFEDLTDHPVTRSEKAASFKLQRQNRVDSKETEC

Large T antigen = Large T antigen (Simian virus 40, UniProt P03070); assay type: functional, Betapolyomavirus macacae;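 further: Confirmatory-stage PubChem screen for compounds that inhibit SV40 T antigen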
Sequence of Large T antigen (P03070 whole entry): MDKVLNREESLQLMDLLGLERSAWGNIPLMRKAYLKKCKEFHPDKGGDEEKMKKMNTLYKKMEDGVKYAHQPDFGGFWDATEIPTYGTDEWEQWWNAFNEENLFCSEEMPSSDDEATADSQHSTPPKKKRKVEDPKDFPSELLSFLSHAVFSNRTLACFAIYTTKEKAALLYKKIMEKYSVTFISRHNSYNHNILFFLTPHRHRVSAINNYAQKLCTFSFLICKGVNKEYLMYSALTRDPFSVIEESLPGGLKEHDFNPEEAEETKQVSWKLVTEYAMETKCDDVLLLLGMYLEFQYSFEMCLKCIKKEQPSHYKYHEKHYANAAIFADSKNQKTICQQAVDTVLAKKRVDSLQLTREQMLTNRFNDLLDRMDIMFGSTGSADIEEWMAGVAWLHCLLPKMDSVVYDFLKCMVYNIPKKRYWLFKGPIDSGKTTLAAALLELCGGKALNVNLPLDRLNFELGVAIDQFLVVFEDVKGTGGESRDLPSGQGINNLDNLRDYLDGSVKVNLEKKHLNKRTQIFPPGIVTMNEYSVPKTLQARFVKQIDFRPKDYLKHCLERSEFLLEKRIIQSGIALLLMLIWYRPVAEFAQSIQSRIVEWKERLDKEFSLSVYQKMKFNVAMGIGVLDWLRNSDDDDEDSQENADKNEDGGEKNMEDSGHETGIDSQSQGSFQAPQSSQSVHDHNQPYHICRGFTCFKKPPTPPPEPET

[9] = Luminescence-based cell-based high throughput dose response assay to identify activators of the DAF-12 from the parasite S. stercoralis (ssDAF-12).; assay type: functional
H4 = assay: Luminescence Cell-Based Dose Response HTS to Identify Activators of 5'UTR Stem-Loop Driven Prion Protein mRNA Translation in H4 Neuroglioblastoma Cells. [Related pubchem assays: 1829 (Project Summary), 1814 (Primary HTS)]; assay type: functional; details: Homo sapiens
[10] = target: T3, Oxysterols receptor LXR-beta (Homo sapiens, UniProt P55055); assay: LXR agonists, Gal4 luciferase reporter, dose response, counter-screen for ssDAF-12 agonist project, cell-based, luminescence, HEK293, S. stercoralis campaign (AID 720737); assay type: functional; details: read-out: IC50 (the source's name)
T3 sequence (P55055 whole entry): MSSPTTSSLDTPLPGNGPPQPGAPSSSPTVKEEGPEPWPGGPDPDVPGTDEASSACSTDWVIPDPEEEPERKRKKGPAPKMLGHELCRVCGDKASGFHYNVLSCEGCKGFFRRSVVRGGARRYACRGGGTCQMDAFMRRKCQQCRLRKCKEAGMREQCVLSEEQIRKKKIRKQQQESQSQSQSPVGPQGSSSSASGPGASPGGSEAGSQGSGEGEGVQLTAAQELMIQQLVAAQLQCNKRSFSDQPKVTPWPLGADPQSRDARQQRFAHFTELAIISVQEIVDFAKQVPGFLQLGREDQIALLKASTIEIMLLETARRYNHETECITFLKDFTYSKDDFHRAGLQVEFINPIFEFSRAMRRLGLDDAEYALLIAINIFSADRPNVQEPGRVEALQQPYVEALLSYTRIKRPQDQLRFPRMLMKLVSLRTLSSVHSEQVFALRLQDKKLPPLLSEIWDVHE

[11] = Luminescence Cell-Based Dose Response HTS to Identify Activators of Luciferase Translation or Activity in H4 […] Cells. [Related pubchem assays: 1829 (Project Summary), 1814 (Primary HTS)]; assay type: functional

With `CCN1C(=O)/C(=C2/C=Cc3cc(C)ccc3N2CC)N(C)C1=S` the CC50 [1] was 100 µM (active) and the IC50 [2] was 60.4 µM (active).

With `O=C(c1ccco1)N1CCN(CCCCN2C(=O)c3ccccc3C2=O)CC1` the EC50 [3] was 76.1 µM (inactive) and the EC50 (Mu-type opioid receptor) was 92.5 µM (inactive).

In the case of `CN=C(S)NNC(=O)c1oc2nc(-c3ccccc3)cc(-c3ccco3)c2c1N`, the IC50 (Albumin) is reported as > 94.1 µM (inactive).

With `COC(=O)c1ccc(CN2C(=O)C(C)N(C(=O)c3c(F)cccc3F)c3ccccc32)cc1` (stereo not drawn) the IC50 [4] was > 69.5 µM (inactive), the IC50 [5] was 17 µM (active) and the IC50 [6] was < 0.368 µM (active). The EC50 [7] was > 53 µM (inactive) and the IC50 [8] was > 69.5 µM (inactive).

For `CCOc1cc(/C=N/NC(=O)Nc2ccccc2)ccc1O`, the CC50 [1] was 100 µM (active), the IC50 [2] was 32.5 µM (active) and the IC50 (Large T antigen) was > 100 µM (active). The IC50 [9] was > 67.6 µM (inactive), the EC50 (H4) was 1.94 µM (active) and the EC50 [10] was > 67.6 µM (inactive). The EC50 [11] was 16.6 µM (active).

In the case of `COc1ccccc1-c1ccc(SCc2cccc(F)c2)nn1`, the IC50 [5] is reported as > 20 µM (inactive), the IC50 [6] is reported as < 0.368 µM (active) and the EC50 [7] is reported as > 53 µM (inactive).

In the case of `CC(=O)NC(Cc1cccc(C)c1)C(=O)NC1CCN(c2ncccc2[N+](=O)[O-])CC1` (stereo not drawn), the IC50 [5] is reported as 18.8 µM (active), the IC50 [6] is reported as 5.13 µM (active) and the EC50 [7] is reported as > 53 µM (inactive).
